Source: patent US9789096B2, “Methods and compositions for selective and targeted cancer therapy” (Board of Regents of the University of Texas System, priority 2013, dated 2017)
Where two headings read alike, the source gives them in different places.

Key:
Assay type in all cases: cell-based, human
H2122 = assay: Cell viability dose-response, H2122; conditions: for AC50: 12-point dose-response starting at 50 micromolar
Procedure, shortened: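 Cells plated at 15% confluence in RPMI-1640 with 5% FBS and 2 mM L-glutamine, treated with compound in a 12-point, 3-fold dilution series from 50 micromolar, in duplicate. ATP measured by Cell Titer Glo after 4 days; IC50 taken from the dose-response curve.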

HCC44 = assay: Cell viability dose-response, HCC44; conditions: for AC50: 12-point dose-response starting at 50 micromolar
Protocol: (§1) FIG. 6A. […] Cell viability is plotted vs. compound concentration. Compound was added to cells plated at 15% confluence in 96-well plates in RPMI-1640 media supplemented with 5% Fetal Bovine Serum and 2 mM L-Glutamine. After 4 days of incubation, ATP levels were measured using Cell Titer Glo (Promega). Data are presented as the average of 2 replicates ±SEM.
(§2) Selectivity may be measured by the half maximal inhibitory concentration (IC50), which, as used herein, is a measure of the effectiveness of a compound in killing cells. This quantitative measure indicates how much of a particular compound is needed to kill a particular cell population by half (e.g., as indicated by the amount of ATP). […] The IC50 can be determined by constructing a dose-response curve. The lower the IC50, the higher the potency, and the greater the difference between IC50 values for different cell lines (e.g., sensitive lines vs. insensitive lines, and sensitive lines vs. normal lines) the greater the selectivity. […]
(§3) With this information, we synthesized and tested a series of small molecules derived in conception from the oxalamide and chromone scaffold including N-acyl ureas, as shown in Tables 6-8. Each compound was tested in a 12-point dose-response study starting at 50 micromolar and decreasing in 3-fold increments to sub-nanomolar concentrations, in duplicate. Additionally, one or more additional cell line was tested in the same way.

H2009 = assay: Cell viability dose-response, H2009; conditions: for IC50: NCI-H2009
Protocol: as §1, §2, §3

[1] = Homo sapiens, NCI-H2122, Table 8
[2] = Homo sapiens, NCI-H2009, Table 8, 12-point dose-response starting at 50 micromolar
[3] = Homo sapiens, NCI-H2122, 12-point dose-response starting at 50 micromolar, 3-fold increments, in duplicate, read-out: toxicity data, H2122
[4] = Homo sapiens, HCC44, 12-point dose-response starting at 50 micromolar, 3-fold increments, in duplicate, read-out: toxicity data, HCC44
[5] = Homo sapiens, 12-point dose-response starting at 50 micromolar, 3-fold increments, in duplicate, read-out: toxicity data, H2009
[6] = Homo sapiens, NCI-H2122, Table 9, competitor, read-out: IC50 to H2122 cells

COc1ccc(-c2coc3cc(OCc4cnn(-c5ccccc5)c4)ccc3c2=O)cc1 [SW208759-1]
AC50 (H2122; [1]): ≥ 49.5 µM
AC50 (HCC44; Homo sapiens, HCC44, Table 8): 49.5 µM
AC50 (H2009; [2]): 49.5 µM

COc1ccc(CCNC(=O)NC(=O)c2ccc(-c3ccc(OC)cc3)cc2)cc1 [SW208387-1-A]
IC50 (H2122; [3]): 0.18 µM
IC50 (HCC44; [4]): 0.25 µM
IC50 (H2009; [5]): ≥ 49.5 µM

COc1ccc(CCCCC(=O)Nc2ccc(C(=O)c3ccccc3)cc2)cc1 [SW208480-1-A]
IC50 (H2122; [3]): 2.51 µM
IC50 (HCC44; [4]): 1.41 µM
IC50 (H2009; [5]): ≥ 49.5 µM

O=C(Nc1nccs1)c1ccc(C(=O)c2ccccc2)cc1 [SW208771-1]
IC50 (H2122; Homo sapiens, NCI-H2122, Tables 3 and 4, read-out: IC50 (uM) vs indicated non-small cell lung cancer cell line H2122): 32.9 µM
IC50 (HCC44; Homo sapiens, HCC44, Tables 3 and 4, read-out: IC50 (uM) vs indicated non-small cell lung cancer cell line HCC44): 8.43 µM
IC50 (H2009; Homo sapiens, Tables 3 and 4, read-out: IC50 (uM) vs indicated non-small cell lung cancer cell line H2009): 49.5 µM

COc1ccc(CCNC(=O)NC(=O)c2ccc(C(=O)NC3CCC3)cc2)cc1 [SW208453-1-A]
IC50 (H2122; [3]): 0.864 µM
IC50 (HCC44; [4]): ≥ 49.5 µM
IC50 (H2009; [5]): 1.63 µM

COc1ccc(CCNC(=O)NC(=O)c2ccc(OCc3ccccc3)cc2)cc1 [SW208457-1-A]
IC50 (H2122; [3]): 0.031 µM
IC50 (HCC44; [4]): 0.023 µM
IC50 (H2009; [5]): ≥ 49.5 µM

O=C(NCCc1ccc(O)cc1)NC(=O)c1ccc(COc2ccccc2)cc1 [SW208522-1-A]
IC50 (H2122; [3]): 0.01 µM
IC50 (H2122; [6]): 0.0477 µM
IC50 (HCC44; [4]): 0.01 µM
IC50 (H2009; [5]): 0.01 µM

CCOc1ccc(-c2coc3cc(OCc4cnn(-c5ccccc5)c4)ccc3c2=O)cc1 [SW208765-1]
AC50 (H2122; [1]): ≥ 49.5 µM
AC50 (HCC44; Homo sapiens, HCC44, Table 8): 49.5 µM
AC50 (H2009; [2]): 16.5 µM

COc1ccc(CCNC(=O)NC(=O)c2ccc(-c3cc4ccccc4c4ccccc34)cc2)cc1 [SW208391-1-A]
IC50 (H2122; [3]): ≥ 49.5 µM
IC50 (HCC44; [4]): ≥ 49.5 µM
IC50 (H2009; [5]): 7.16 µM

COc1ccc(CNC(=O)c2ccc(Cl)cc2)cc1 [SW208464-1-A]
IC50 (H2122; [3]): ≥ 49.5 µM
IC50 (HCC44; [4]): ≥ 49.5 µM
IC50 (H2009; [5]): ≥ 49.5 µM

COc1ccc(CCNC(=O)NC(=O)c2ccc(-c3ccccc3)cc2)cc1 [SW208393-1-A]
IC50 (H2122; [3]): 0.17 µM
IC50 (H2122; [6]): 0.115 µM
IC50 (HCC44; [4]): ≥ 49.5 µM
IC50 (H2009; [5]): ≥ 49.5 µM

COc1ccc(Oc2coc3cc(OCc4cnn(-c5ccccc5)c4)ccc3c2=O)cc1 [SW 208596-1]
AC50 (H2122; [1]): 0.22 µM
AC50 (HCC44; Homo sapiens, HCC44, Table 8): 16.5 µM
AC50 (H2009; [2]): 16.5 µM

O=c1c(Oc2ccccc2F)coc2cc(OCc3cnn(-c4ccc(F)cc4)c3)ccc12 [SW208468]
AC50 (H2122; [1]): ≥ 49.5 µM
AC50 (HCC44; Homo sapiens, HCC44, Table 8): 49.5 µM
AC50 (H2009; [2]): 22.3 µM

O=c1c(-c2ccc(O)cc2)coc2cc(OCc3cnn(-c4ccccc4)c3)ccc12 [SW208757-1]
AC50 (H2122; [1]): ≥ 49.5 µM
AC50 (HCC44; Homo sapiens, HCC44, Table 8): 49.5 µM
AC50 (H2009; [2]): 5.63 µM

COc1ccc(CCNC(=O)NC(=O)c2ccc(C(Cl)c3ccccc3)cc2)cc1 (stereo not drawn) [SW208563-1-A]
IC50 (H2122; [3]): 0.06 µM
IC50 (HCC44; [4]): 0.03 µM
IC50 (H2009; [5]): 0.99 µM

COc1ccc(CCNC(=O)NC(=O)c2ccc(C(=O)NCc3ccccc3)cc2)cc1 [SW208412-1-A]
IC50 (H2122; [3]): 0.27 µM
IC50 (H2122; [6]): 0.277 µM
IC50 (HCC44; [4]): ≥ 49.5 µM
IC50 (H2009; [5]): 2.14 µM

O=c1c(Oc2ccccc2F)coc2cc(OCc3cnn(-c4ccccc4)c3)ccc12 [SW043139-2-A]
AC50 (H2122; Table 8): 0.292 µM
AC50 (HCC44; Table 8): 49.5 µM
AC50 (H2009; Table 8, 12-point dose-response starting at 50 micromolar): 15.9 µM

COc1ccc(CCNC(=O)NC(=O)c2cccc(-c3ccc(OC)cc3)c2)cc1 [SW208386-1-A]
IC50 (H2122; [3]): ≥ 49.5 µM
IC50 (HCC44; [4]): ≥ 49.5 µM
IC50 (H2009; [5]): 13.1 µM

O=c1c(-c2ccc3ccccc3c2)coc2cc(OCc3cnn(-c4ccccc4)c3)ccc12 [SW208761-1]
AC50 (H2122; [1]): ≥ 49.5 µM
AC50 (HCC44; Homo sapiens, HCC44, Table 8): 49.5 µM
AC50 (H2009; [2]): 32.4 µM

COc1ccc(CCNC(=O)NC(=O)c2cccc(-c3ccccc3)c2)cc1 [SW208394-1-A]
IC50 (H2122; [3]): ≥ 49.5 µM
IC50 (HCC44; [4]): ≥ 49.5 µM
IC50 (H2009; [5]): ≥ 49.5 µM

COc1ccc(CCNC(=O)NC(=O)c2ccc(O)cc2)cc1 [SW208565-1-A]
IC50 (H2122; [3]): 18 µM
IC50 (HCC44; [4]): 2.75 µM
IC50 (H2009; [5]): 5.9 µM

COc1ccc(CCNC(=O)c2ccc(Cl)cc2)cc1 [SW208463-1-A]
IC50 (H2122; [3]): ≥ 49.5 µM
IC50 (HCC44; [4]): ≥ 49.5 µM
IC50 (H2009; [5]): ≥ 49.5 µM

O=c1c(Oc2ccc(F)cc2)coc2cc(OCc3cnn(-c4ccccc4)c3)ccc12 [SW 208591-1]
AC50 (H2122; [1]): 0.15 µM
AC50 (HCC44; Homo sapiens, HCC44, Table 8): 0.07 µM
AC50 (H2009; [2]): 16 µM

O=c1c(Oc2ccccc2F)coc2cc(OCc3cn(-c4ccccc4)nn3)ccc12 [SW208232]
AC50 (H2122; [1]): ≥ 49.5 µM
AC50 (HCC44; Homo sapiens, HCC44, Table 8): 49.5 µM
AC50 (H2009; [2]): 49.5 µM
